Values quoted from earlier work, collected in US11944682B2, “Aggregation induced emission-bacteriophage bioconjugates” (priority 2020, dated 2024).

Conditions: used as standard

Compound: O=C1OC2(c3cc(I)c(O)c(I)c3Oc3c2cc(I)c(O)c3I)c2c(Cl)c(Cl)c(Cl)c(Cl)c21 [Rose Bengal, Rose Bengal lactone]
- quantum yield for 1O2 (standard): ~75%
